Results from patent US10670605B2, “Cysteine reactive probes and uses thereof” (The Scripps Research Institute, priority 2015, dated 2020).
Counter-ions that a name gives are not always drawn.

Assays:
Test in all cases: isoTOP-ABPP of compound-treated primary human T cells
Assay type in all cases: cell-based
[1] = target: Cys residues in primary human T cells (Homo sapiens, UniProt Q86YS7); settings: KIAA0528 C993 (Q86YS7)
[2] = target: T1, Cys residues in primary human T cells (Homo sapiens, UniProt O95081); settings: AGFG2 C39 (O95081)
T1 sequence (O95081 1-481): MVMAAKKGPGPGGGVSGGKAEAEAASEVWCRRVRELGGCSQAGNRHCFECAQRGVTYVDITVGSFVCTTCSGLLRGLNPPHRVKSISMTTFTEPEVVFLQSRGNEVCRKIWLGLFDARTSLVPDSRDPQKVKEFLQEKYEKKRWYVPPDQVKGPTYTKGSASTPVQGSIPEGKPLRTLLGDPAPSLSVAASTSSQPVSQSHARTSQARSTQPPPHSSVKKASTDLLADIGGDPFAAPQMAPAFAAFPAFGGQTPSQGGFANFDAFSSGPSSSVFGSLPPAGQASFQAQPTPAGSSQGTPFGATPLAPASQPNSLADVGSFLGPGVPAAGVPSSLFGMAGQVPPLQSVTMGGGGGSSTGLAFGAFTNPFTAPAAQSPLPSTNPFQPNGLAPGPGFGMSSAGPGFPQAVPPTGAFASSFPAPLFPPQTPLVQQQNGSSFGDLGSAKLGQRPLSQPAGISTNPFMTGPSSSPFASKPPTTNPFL

[3] = target: T2, Cys residues in primary human T cells (Homo sapiens, UniProt Q15306); settings: IRF4 C194 (Q15306)
T2 sequence (Q15306 1-451): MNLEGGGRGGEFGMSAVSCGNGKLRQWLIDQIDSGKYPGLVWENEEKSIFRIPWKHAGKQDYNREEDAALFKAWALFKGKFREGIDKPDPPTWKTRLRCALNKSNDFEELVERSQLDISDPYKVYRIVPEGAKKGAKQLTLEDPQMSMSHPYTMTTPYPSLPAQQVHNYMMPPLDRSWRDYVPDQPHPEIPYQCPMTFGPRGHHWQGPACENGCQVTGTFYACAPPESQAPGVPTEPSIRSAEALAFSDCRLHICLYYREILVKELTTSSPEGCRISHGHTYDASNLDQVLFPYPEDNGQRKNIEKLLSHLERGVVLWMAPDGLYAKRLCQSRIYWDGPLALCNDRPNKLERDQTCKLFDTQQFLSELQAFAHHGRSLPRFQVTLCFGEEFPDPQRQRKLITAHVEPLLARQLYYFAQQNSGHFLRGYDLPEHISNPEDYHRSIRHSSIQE

[4] = target: T3, Cys residues in primary human T cells (Homo sapiens, UniProt O95336); settings: PGLS C32 (095336)
T3 sequence (O95336 1-258): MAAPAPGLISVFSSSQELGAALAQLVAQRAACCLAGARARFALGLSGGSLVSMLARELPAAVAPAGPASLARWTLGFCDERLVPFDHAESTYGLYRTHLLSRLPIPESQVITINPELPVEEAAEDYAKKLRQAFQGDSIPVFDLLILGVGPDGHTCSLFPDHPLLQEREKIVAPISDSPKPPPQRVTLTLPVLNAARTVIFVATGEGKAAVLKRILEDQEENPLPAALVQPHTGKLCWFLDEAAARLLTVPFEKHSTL

[5] = target: Cys residues in primary human T cells (Homo sapiens, UniProt O14976); settings: GAK C87 (O14976)
Chain of Cys residues in primary human T cells (Homo sapiens, UniProt O14976) (O14976 whole entry): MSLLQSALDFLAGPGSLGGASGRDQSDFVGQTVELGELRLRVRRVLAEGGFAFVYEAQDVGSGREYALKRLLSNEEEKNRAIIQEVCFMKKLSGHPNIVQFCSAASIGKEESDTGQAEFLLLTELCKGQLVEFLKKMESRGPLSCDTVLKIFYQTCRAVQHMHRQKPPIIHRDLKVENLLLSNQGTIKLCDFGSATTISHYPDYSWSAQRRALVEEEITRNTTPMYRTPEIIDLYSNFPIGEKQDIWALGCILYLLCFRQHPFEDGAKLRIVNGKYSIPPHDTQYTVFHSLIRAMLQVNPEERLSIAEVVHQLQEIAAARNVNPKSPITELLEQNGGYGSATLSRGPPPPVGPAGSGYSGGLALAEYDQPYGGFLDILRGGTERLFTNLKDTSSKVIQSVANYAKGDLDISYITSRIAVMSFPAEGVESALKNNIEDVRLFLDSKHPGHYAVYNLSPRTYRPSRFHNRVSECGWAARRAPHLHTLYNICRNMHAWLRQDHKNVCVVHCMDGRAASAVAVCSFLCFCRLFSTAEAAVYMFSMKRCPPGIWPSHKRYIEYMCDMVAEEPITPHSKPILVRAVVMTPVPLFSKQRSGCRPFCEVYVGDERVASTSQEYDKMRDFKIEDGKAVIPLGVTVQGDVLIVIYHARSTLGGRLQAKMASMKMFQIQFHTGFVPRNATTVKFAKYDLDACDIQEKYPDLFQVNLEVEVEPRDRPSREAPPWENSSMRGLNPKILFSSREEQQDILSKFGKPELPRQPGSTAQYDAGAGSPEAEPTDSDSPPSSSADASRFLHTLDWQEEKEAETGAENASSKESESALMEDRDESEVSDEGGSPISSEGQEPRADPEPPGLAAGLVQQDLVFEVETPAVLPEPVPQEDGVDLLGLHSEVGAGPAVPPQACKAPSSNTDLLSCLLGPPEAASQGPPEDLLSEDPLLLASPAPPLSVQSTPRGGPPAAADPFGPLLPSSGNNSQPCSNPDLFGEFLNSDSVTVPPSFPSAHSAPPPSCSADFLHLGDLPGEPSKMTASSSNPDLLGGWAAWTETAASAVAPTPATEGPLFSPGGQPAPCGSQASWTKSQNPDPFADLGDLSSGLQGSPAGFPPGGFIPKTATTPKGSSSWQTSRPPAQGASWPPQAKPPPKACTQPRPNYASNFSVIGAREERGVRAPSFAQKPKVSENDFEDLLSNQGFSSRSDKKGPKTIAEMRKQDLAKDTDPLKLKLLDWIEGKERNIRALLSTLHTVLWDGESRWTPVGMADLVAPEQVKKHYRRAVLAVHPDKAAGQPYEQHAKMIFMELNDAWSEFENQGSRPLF

[6] = target: Cys residues in primary human T cells (Homo sapiens, UniProt Q7Z2W4); settings: ZC3HAV1 C645 (Q7Z2W4)
Chain of Cys residues in primary human T cells (Homo sapiens, UniProt Q7Z2W4) (Q7Z2W4 whole entry): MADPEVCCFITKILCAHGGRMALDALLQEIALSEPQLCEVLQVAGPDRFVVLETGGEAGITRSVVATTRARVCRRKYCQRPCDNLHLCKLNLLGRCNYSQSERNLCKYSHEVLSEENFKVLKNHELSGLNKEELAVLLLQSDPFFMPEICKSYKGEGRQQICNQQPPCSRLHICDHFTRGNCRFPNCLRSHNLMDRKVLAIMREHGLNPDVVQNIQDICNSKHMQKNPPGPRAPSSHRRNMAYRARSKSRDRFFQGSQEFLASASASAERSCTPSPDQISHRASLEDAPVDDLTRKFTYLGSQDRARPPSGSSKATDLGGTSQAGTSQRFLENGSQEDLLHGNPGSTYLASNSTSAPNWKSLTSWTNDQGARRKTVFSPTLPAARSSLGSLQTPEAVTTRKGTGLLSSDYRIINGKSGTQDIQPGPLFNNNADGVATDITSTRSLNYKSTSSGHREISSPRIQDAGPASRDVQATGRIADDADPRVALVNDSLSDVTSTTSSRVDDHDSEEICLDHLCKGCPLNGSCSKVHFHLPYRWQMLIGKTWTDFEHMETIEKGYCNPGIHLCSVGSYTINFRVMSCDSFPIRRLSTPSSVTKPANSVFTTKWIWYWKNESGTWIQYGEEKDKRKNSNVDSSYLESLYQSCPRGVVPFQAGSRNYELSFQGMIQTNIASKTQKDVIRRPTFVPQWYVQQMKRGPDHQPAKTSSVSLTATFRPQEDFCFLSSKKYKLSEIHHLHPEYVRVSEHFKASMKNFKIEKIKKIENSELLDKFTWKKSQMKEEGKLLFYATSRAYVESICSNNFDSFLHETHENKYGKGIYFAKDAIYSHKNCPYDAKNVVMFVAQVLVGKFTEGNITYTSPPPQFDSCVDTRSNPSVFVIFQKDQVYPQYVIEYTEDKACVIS

[7] = target: Cys residues in primary human T cells (Homo sapiens, UniProt P18583); settings: SON C92 (P18583)
Chain of Cys residues in primary human T cells (Homo sapiens, UniProt P18583) (P18583 whole entry): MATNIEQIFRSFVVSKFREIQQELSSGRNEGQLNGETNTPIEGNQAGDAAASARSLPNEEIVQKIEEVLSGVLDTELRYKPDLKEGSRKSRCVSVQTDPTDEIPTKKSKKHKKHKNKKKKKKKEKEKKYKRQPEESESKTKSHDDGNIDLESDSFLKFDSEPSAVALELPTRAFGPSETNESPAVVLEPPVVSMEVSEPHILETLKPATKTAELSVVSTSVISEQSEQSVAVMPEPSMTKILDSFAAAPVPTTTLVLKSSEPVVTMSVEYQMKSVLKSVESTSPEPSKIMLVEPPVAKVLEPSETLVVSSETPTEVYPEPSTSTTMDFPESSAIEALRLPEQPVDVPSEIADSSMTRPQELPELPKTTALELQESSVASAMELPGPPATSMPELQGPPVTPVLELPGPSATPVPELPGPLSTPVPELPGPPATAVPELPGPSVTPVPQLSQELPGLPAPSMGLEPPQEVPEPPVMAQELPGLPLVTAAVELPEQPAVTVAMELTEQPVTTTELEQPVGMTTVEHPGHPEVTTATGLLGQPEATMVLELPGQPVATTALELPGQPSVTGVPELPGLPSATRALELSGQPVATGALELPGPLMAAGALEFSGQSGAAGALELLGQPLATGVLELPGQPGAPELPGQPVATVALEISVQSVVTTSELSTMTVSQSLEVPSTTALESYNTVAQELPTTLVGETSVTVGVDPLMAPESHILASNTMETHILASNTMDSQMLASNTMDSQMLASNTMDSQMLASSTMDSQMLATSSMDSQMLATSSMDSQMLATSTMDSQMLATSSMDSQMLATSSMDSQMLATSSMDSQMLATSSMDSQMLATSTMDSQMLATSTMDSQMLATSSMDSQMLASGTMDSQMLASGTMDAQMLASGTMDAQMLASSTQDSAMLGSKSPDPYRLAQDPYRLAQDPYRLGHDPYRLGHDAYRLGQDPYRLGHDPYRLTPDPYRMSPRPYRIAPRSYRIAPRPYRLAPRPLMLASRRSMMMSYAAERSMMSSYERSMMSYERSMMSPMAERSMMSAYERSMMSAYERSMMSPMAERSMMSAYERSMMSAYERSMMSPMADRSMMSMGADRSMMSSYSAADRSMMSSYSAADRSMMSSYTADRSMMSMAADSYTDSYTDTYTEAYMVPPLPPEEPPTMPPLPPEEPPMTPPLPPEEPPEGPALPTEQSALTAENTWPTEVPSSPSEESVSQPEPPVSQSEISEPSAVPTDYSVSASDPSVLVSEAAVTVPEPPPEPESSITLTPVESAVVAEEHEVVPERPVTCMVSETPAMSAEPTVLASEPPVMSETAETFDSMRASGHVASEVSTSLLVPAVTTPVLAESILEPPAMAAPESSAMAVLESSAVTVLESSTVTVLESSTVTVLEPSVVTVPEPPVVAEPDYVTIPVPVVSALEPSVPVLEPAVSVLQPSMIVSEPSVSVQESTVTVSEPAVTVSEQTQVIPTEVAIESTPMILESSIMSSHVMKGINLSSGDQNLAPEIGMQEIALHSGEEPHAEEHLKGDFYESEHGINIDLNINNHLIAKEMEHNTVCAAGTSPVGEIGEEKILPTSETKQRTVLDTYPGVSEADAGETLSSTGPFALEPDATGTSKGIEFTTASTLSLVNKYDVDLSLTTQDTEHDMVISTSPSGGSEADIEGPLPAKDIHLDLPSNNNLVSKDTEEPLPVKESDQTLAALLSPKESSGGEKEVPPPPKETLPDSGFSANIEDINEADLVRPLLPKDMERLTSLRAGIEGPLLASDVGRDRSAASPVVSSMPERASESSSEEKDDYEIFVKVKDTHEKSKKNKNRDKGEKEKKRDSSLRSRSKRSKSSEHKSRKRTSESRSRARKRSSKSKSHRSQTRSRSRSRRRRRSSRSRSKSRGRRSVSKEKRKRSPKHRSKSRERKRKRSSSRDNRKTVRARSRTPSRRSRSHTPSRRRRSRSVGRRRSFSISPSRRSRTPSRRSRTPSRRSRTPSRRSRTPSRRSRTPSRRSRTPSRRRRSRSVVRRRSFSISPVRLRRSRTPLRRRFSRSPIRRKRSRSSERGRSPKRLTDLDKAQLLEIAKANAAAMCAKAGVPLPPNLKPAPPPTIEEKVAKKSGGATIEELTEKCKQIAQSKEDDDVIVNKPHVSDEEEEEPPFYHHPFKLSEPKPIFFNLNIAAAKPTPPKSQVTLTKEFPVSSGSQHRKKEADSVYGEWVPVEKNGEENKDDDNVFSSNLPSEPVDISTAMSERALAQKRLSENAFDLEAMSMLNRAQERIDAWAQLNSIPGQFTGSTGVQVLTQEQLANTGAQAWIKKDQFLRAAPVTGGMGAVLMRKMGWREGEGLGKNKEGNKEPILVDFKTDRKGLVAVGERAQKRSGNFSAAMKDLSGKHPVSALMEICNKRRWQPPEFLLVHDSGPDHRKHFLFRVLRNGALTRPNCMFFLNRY

[8] = target: T4, Cys residues in primary human T cells (Homo sapiens, UniProt Q16548)
T4 sequence (Q16548 1-175): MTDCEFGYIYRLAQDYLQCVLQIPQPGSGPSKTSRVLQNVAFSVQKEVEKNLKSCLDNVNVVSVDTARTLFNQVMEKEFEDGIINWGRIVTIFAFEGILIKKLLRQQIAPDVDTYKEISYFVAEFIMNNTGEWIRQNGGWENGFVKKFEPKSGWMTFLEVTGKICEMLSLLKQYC

[9] = target: Cys residues in primary human T cells (Homo sapiens, UniProt Q15005); settings: SPCS2 C17 (Q15005)
Chain of Cys residues in primary human T cells (Homo sapiens, UniProt Q15005) (Q15005 whole entry): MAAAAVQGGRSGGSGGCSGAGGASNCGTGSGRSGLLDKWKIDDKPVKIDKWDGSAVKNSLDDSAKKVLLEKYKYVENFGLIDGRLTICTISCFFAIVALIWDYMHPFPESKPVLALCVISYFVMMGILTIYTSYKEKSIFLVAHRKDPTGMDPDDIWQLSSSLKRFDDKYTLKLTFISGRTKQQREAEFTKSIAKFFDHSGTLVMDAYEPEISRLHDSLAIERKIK

[10] = target: Cys residues in primary human T cells (Homo sapiens, UniProt Q8N0Z8); settings: PUSL1 C292 (Q8N0Z8); DMF 50 μM 4h

COC(=O)/C=C/C(=O)OC [DMF, dimethyl fumarate]
R value (DMSO/DMF) ([1]; DMF 10 μM 4h): 1.4
R value (DMSO/DMF) ([1]; DMF 50 μM 4h): 4.38
R value (DMSO/DMF) ([2]; DMF 10 μM 4h): 1.42
R value (DMSO/DMF) ([2]; DMF 50 μM 2h): 3.85
R value (DMSO/DMF) ([2]; DMF 50 μM 4h): 6.39
R value (DMSO/DMF) ([3]; DMF 10 μM 4h): 1.69
R value (DMSO/DMF) ([3]; DMF 25 μM 4h): 1.78
R value (DMSO/DMF) ([3]; DMF 50 μM 1h): 1.32
R value (DMSO/DMF) ([3]; DMF 50 μM 2h): 3.13
R value (DMSO/DMF) ([3]; DMF 50 μM 4h): 5.25
R value (DMSO/DMF) ([4]; DMF 10 μM 4h): 1.9
R value (DMSO/DMF) ([4]; DMF 25 μM 4h): 5.32
R value (DMSO/DMF) ([4]; DMF 50 μM 1h): 3.42
R value (DMSO/DMF) ([4]; DMF 50 μM 2h): 9.49
R value (DMSO/DMF) ([4]; DMF 50 μM 4h): 11.51
R value (DMSO/DMF) ([5]; DMF 10 μM 4h): 1.36
R value (DMSO/DMF) ([5]; DMF 50 μM 2h): 4.79
R value (DMSO/DMF) ([6]; DMF 10 μM 4h): 1.46
R value (DMSO/DMF) ([6]; DMF 25 μM 4h): 2.52
R value (DMSO/DMF) ([6]; DMF 50 μM 1h): 2.36
R value (DMSO/DMF) ([6]; DMF 50 μM 2h): 3.13
R value (DMSO/DMF) ([6]; DMF 50 μM 4h): 6.28
R value (DMSO/DMF) ([7]; DMF 50 μM 1h): 2.5
R value (DMSO/DMF) ([7]; DMF 50 μM 2h): 6.31
R value (DMSO/DMF) ([7]; DMF 50 μM 4h): 4.17
R value (DMSO/DMF) ([8]; BCL2A1 C19 (Q16548), DMF 10 μM 4h): 1,15
R value (DMSO/DMF) ([8]; BCL2A1 C19 (Q16548), DMF 25 μM 4h): 2.19
R value (DMSO/DMF) ([8]; BCL2A1 C19 (Q16548), DMF 50 μM 2h): 2.09
R value (DMSO/DMF) ([8]; BCL2A1 C19 (Q16548), DMF 50 μM 4h): 4.16
R value (DMSO/DMF) ([8]; BCL2A1 C55 (Q16548), DMF 50 μM 4h): 7.18
R value (DMSO/DMF) ([9]; DMF 10 μM 4h): 1.42
R value (DMSO/DMF) ([9]; DMF 25 μM 4h): 2.41
R value (DMSO/DMF) ([9]; DMF 50 μM 1h): 2.25
R value (DMSO/DMF) ([9]; DMF 50 μM 2h): 3.86
R value (DMSO/DMF) ([9]; DMF 50 μM 4h): 5.09
R value (DMSO/DMF) [10]: 4.68
